Patent US9193669B2, “Compounds for treating ophthalmic diseases and disorders” (Acucela Inc., priority 2008, dated 2015)

Legend:
[1] = molecular target: T1, recombinant human RPE65 and LRAT (Homo sapiens, UniProt Q16518); experiment: Human in vitro isomerase inhibition reaction; type: biochemical; details: human in vitro isomerase assay, FIG. 1 and FIG. 2
T1 construct: made in house; host or cells: HEK293 cell clone (homogenate) for RPE65 and LRAT; E. coli TOP10 for CRALBP
T1 sequence (Q16518 2-533 limits assumed): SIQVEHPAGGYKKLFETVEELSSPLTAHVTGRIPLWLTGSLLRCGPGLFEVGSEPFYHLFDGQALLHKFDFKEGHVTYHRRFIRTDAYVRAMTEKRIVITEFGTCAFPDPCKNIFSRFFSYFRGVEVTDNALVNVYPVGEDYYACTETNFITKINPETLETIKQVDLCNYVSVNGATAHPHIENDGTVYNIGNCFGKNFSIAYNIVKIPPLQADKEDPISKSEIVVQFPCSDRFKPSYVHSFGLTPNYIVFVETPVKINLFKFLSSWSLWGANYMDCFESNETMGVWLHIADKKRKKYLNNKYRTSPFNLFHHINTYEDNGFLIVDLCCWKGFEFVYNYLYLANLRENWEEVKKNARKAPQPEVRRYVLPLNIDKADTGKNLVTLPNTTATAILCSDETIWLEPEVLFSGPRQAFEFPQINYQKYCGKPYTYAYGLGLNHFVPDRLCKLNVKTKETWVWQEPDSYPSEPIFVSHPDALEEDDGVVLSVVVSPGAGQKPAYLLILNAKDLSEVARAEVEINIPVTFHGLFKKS
Description: A homogenate of HEK293 cell clone expressing recombinant human RPE65 and LRAT were the source of the visual enzymes, and exogenous all-trans-retinol (about 20 μM) was used as the substrate. […] The 200 μL Bis-Tris Phosphate buffer (10 mM, pH 7.2) based reaction mixture also contains 0.5% BSA, and 1 mM NaPPi. In this assay, the reaction was carried out at 37° C. in duplicates for one hour and was terminated by addition of 300 μL methanol. The amount of reaction product, 11-cis-retinol, was measured by HPLC analysis following Heptane extraction of the reaction mixture.

isomerase = molecular target: T2, isomerase (Mus musculus, UniProt Q91ZQ5); experiment: In vivo murine isomerase assay; parameters: species or system mice; details: for inhibition in vivo at 1 mg/kg: mouse, po, 4 h, read-out: % Inibition 1 mg/kg, 4 h
T2 construct: The recovery of 11-cis-retinal after bleaching can be used to estimate the activity of isomerase in vivo; from tissue; host or cells: eyes of living mice (CD-1; Balb/c also named)
T2 sequence (Q91ZQ5 1-533): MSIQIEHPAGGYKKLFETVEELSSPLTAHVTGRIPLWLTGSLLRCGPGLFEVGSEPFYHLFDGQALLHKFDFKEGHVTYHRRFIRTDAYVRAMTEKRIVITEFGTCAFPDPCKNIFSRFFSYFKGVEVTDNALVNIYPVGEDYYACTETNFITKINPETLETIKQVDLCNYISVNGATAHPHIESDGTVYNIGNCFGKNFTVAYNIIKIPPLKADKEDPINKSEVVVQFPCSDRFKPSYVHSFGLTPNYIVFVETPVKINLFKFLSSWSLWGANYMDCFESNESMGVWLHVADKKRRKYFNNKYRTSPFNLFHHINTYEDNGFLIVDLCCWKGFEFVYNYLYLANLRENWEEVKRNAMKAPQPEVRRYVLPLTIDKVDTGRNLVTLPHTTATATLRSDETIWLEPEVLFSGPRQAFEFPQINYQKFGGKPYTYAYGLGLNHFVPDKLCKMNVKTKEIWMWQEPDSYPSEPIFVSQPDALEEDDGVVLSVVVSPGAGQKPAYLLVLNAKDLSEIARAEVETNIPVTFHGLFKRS
Description: The capability of compounds described herein to inhibit isomerase was determined by an in vivo murine isomerase assay. Brief exposure of the eye to intense light (“photobleaching” of the visual pigment or simply “bleaching”) is known to photo-isomerize almost all 11-cis-retinal in the retina. The recovery of 11-cis-retinal after bleaching can be used to estimate the activity of isomerase in vivo. Delayed recovery, as represented by lower 11-cis-retinal oxime levels, indicates inhibition of isomerization reaction. Procedures were performed essentially as described by Golczak et al., Proc. Natl. Acad. Sci. […] Mice were gavaged with the compounds described in the present disclosure. After about 2-24 hours in the dark, the mice were exposed to photobleaching of about 5,000 lux of white light for 10 minutes. The mice were allowed to recover for about 2 hours in the dark. The animals were then sacrificed by carbon dioxide inhalation. Retinoids were extracted from the eye and the regeneration of 11-cis-retinal was assessed at various time intervals. […] After the mice were sacrificed, the eyes were immediately removed and placed in liquid nitrogen for storage. The eyes were placed in about 500 μL of bis-tris propane buffer (10 mM, pH˜7.3) and about 20 μl of 0.8M hydroxylamine (pH˜7.3). The eyes were cut up into small pieces with small iris scissors and then thoroughly homogenized at 30000 rpm with a mechanical homogenizer (Polytron PT 1300 D) in the tube until no visible tissue remains. About 500 μL of methanol and about 500 μL of heptane was added to each tube. The tubes were attached to a vortexer so that the contents are mixed thoroughly for about 15 minutes in room temperature. […] The samples were analyzed on an Agilent 1100 HPLC system with normal phase column: SILICA (Beckman Coutlier, dp 5 μm, […]). […] Loading volume for each sample was about 100 μl; detection wavelength is 360 nm. The area under the curve for 11-cis-retinal oxime was calculated by Agilent Chemstation software and recorded manually. Data processing was performed using Prizm software. Positive control mice (no compound administered) were sacrificed fully dark-adapted and the eye retinoids analyzed. Light (bleached) control mice (no compound administered) were sacrificed and retinoids isolated and analyzed immediately after light treatment. A time course study was also performed to determine the isomerase inhibitory activity of compounds of the present disclosure. Female or male mice (such as Balb/c mice) (at least 4/group) received 0 to about 5 mg of compounds (in water) per kg bodyweight orally, by gavage. The animals were then “photo-bleached” (about 5000 Lux white light for about 10 minutes) at about 2, 4, 8, 16 and 24 hours after dosing, and returned to darkness to allow recovery of the 11-cis-retinal content of the eyes. Mice were sacrificed about 2 hours after bleaching, eyes were enucleated, and retinoid content was analyzed by HPLC. A dose response in vivo isomerase inhibition study is performed with compounds of the present disclosure. Male or female mice (such as Balb/c mice)(at least about 8/group) are dosed orally with about 0.01 to 25 mg/kg of the compounds of HCl salts of the compounds in sterile water as solution, and photobleached about 4 hours after dosing. Recovery and retinoid analysis is performed as described above. Dark control mice are vehicle-only treated, sacrificed fully dark adapted without light treatment, and analyzed. […]

| SMILES | inhibition of 11-cis-retinol production [1] | inhibition in vivo at 1 mg/kg (isomerase) | % Inibition 1 mg/kg, 24 h (isomerase; 1 mg/kg oral, 24 h after dosing, inhibition of 11-cis-retinal (oxime) recovery after photobleach) |
| --- | --- | --- | --- |
| NCCC(O)c1cccc(NS(=O)(=O)C2CCCCC2)c1 (centres unmarked) [Example 5, N-(3-(3-amino-1-hydroxypropyl)phenyl)cyclohexanesulfonamide] | dose-dependent inhibition | -11.7 ± 4.36% | – |
| NCCCc1cccc(NS(=O)(=O)C2CCCCC2)c1 [Example 6, N-(3-(3-aminopropyl)phenyl)cyclohexanesulfonamide] | dose-dependent inhibition | -11.9 ± 18.2% | 48.70 ± 2.71% |
